Measurements as given in the supplement of paper PMC10307832.

Tests used:
Experiment in all cases: relative viability (nuclei count vs DMSO), 5 days (fraction); higher = more cells survive
[1] = compound: CCOC(=O)CCNc1cc(N2CCc3ccccc3CC2)nc(-c2ccccn2)n1 [GSK-J4] + C[C@@H](Oc1cc(-c2cnn(C3CCNCC3)c2)cnc1N)c1c(Cl)ccc(F)c1Cl [Crizotinib] (partner 1 µM)
Method in brief: (§1)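 Each reported value is a median over duplicate plates. It expresses relative viability: treated-well nuclei count divided by vehicle-well nuclei count. Lung cancer cell lines in 1536-well plates were dosed by pin tool a day after seeding, alone with one drug or with a fixed anchor-drug dose plus five library-drug doses (not always all listed) in √10 steps, and nuclei were counted after 5 days.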

[2] = compound: CCOC(=O)CCNc1cc(N2CCc3ccccc3CC2)nc(-c2ccccn2)n1 [GSK-J4] + C[C@]1(O)C[C@@H](c2nc(-c3ccc4ccc(-c5ccccc5)nc4c3)c3c(N)nccn32)C1 [Linsitinib] (partner 1 µM)
Method in brief: as §1

[3] = compound: CN1CCC(CC1)OC2=CC(=C(C=C2)NC3=NC=C4C(=N3)N(C(=O)N4C)C5CCCC5)OC [AZ3146] + CC(=O)c1c(C)c2cnc(Nc3ccc(N4CCNCC4)cn3)nc2n(C2CCCC2)c1=O [Palbociclib] (partner 0.5 µM)
Method in brief: as §1

[4] = compound: CN1CCC(CC1)OC2=CC(=C(C=C2)NC3=NC=C4C(=N3)N(C(=O)N4C)C5CCCC5)OC [AZ3146] + Nc1ncn([C@H]2C[C@H](O)[C@@H](CO)O2)c(=O)n1 [Decitabine] (partner 2 µM)
Method in brief: as §1

Cell Line | relative viability ([1]; first compound 0.5 µM) | relative viability ([1]; first compound 1.581 µM) | relative viability ([1]; first compound 5 µM) | relative viability ([1]; first compound 15.81 µM) | relative viability ([1]; first compound 50 µM) | relative viability ([2]; first compound 0.5 µM) | relative viability ([2]; first compound 1.581 µM) | relative viability ([2]; first compound 5 µM) | relative viability ([2]; first compound 15.81 µM) | relative viability ([2]; first compound 50 µM) | relative viability ([3]; first compound 0.253 µM) | relative viability ([3]; first compound 0.8 µM) | relative viability ([3]; first compound 2.53 µM) | relative viability ([3]; first compound 8 µM) | relative viability ([4]; first compound 0.253 µM) | relative viability ([4]; first compound 0.8 µM) | relative viability ([4]; first compound 2.53 µM) | relative viability ([4]; first compound 8 µM) | relative viability ([3]; first compound 0.08 µM) | relative viability ([4]; first compound 0.08 µM)
LU99A | 0.571 | 0.534 | 0.618 | 0.581 | 0.474 | 0.515 | 0.53 | 0.565 | 0.404 | 0.457 | 0.464 | 0.428 | 0.377 | 0.455 | 0.848 | 0.879 | 0.82 | 1.02 | – | –
LXF-289 | 0.71 | 0.768 | 0.776 | 0.806 | 0.753 | 0.973 | 0.912 | 0.956 | 0.915 | 0.893 | 0.603 | 0.564 | 0.595 | 0.579 | 0.382 | 0.403 | 0.432 | 0.388 | 0.574 | 0.356
NCI-H23 | 0.553 | – | 0.456 | 0.413 | 0.422 | 0.557 | – | 0.694 | 0.54 | 0.594 | 0.515 | 0.494 | 0.513 | 0.473 | 0.313 | 0.324 | 0.354 | 0.425 | 0.503 | 0.329
NCI-H322M | 0.976 | 0.779 | 0.828 | 0.91 | 0.83 | 0.858 | 0.929 | 0.955 | 0.828 | 0.825 | 0.465 | 0.461 | 0.518 | 0.471 | 0.671 | 0.727 | 0.698 | 0.721 | 0.475 | 0.604
NCI-H358 | 0.643 | 0.579 | 0.537 | 0.55 | 0.589 | 0.682 | 0.513 | 0.746 | 0.717 | 0.857 | 0.139 | 0.123 | 0.135 | 0.101 | 0.225 | 0.182 | 0.207 | 0.159 | 0.141 | 0.201
NCI-H441 | 0.74 | 0.574 | 0.643 | 0.697 | 0.775 | 0.664 | 0.325 | 0.602 | 0.532 | 0.511 | 0.199 | 0.211 | 0.265 | 0.204 | 0.284 | 0.259 | 0.254 | 0.237 | 0.216 | 0.203
NCI-H460 | 0.983 | 0.734 | 0.832 | 0.321 | 0.821 | 0.821 | 0.584 | 0.836 | 0.691 | 0.581 | 0.139 | 0.139 | 0.161 | 0.0649 | 0.475 | 0.445 | 0.467 | 0.178 | 0.088 | 0.38
NCI-H520 | 0.737 | 0.633 | 0.846 | 0.805 | 0.553 | 0.829 | 0.939 | 1.15 | 0.891 | 0.81 | 0.216 | 0.22 | 0.237 | 0.195 | 0.607 | 0.536 | 0.511 | 0.359 | 0.237 | 0.468
NCI-H647 | 1.01 | 0.759 | 0.865 | 0.991 | 1.01 | 0.964 | 0.993 | 1.03 | 1.2 | 0.79 | 0.364 | 0.357 | 0.346 | 0.367 | 0.521 | 0.381 | 0.441 | 0.329 | 0.356 | 0.359
NCI-H650 | 0.568 | 0.594 | 0.525 | 0.494 | 0.434 | 0.733 | 0.672 | 0.537 | 0.723 | 0.592 | 0.343 | 0.234 | 0.363 | 0.27 | 0.31 | 0.324 | 0.317 | 0.323 | 0.303 | 0.307
NCI-H661 | 0.873 | 0.969 | 1.04 | 0.913 | 0.814 | 0.549 | 0.565 | 0.608 | 0.425 | 0.36 | 0.429 | 0.42 | 0.429 | 0.4 | 0.514 | 0.607 | 0.555 | 0.448 | 0.443 | 0.541
NCI-H727 | 0.782 | – | 1.01 | 0.771 | 0.443 | 0.245 | – | 0.568 | 0.267 | 0.222 | 0.624 | 0.675 | 0.627 | 0.659 | 0.913 | 0.714 | 0.766 | 0.783 | 0.663 | 0.806
NCI-H838 | 0.85 | 0.845 | – | 0.816 | 0.752 | 0.973 | 0.982 | – | 0.999 | 1 | 0.202 | 0.205 | 0.239 | 0.161 | 0.474 | 0.422 | 0.501 | 0.281 | 0.219 | 0.46
NCI-H1355 | 1.06 | 0.962 | 1.22 | 1.02 | 1.04 | 0.714 | 0.742 | 0.871 | 0.809 | 0.816 | 0.402 | 0.405 | 0.406 | 0.388 | 0.32 | 0.362 | 0.423 | 0.361 | 0.396 | 0.336
NCI-H1437 | 0.76 | 0.917 | 0.924 | 0.897 | 0.436 | 0.928 | 0.993 | 0.988 | 0.881 | 0.222 | 0.29 | 0.303 | 0.314 | 0.27 | 0.533 | 0.598 | 0.531 | 0.481 | 0.311 | 0.536
NCI-H1651 | 0.854 | 0.737 | 0.92 | 0.817 | 0.85 | 0.959 | 0.878 | 1.05 | 0.9 | 0.939 | 0.532 | 0.53 | 0.526 | 0.497 | 0.634 | 0.549 | 0.543 | 0.617 | 0.486 | 0.532
